Like-named read-outs stand apart in the source and are kept apart here.
Test: Plasma PK of H3B-6545 capsules in fasted patients, phase 1 dose escalation
Type: in vivo, human
Details: for Vd / Vd/F / Tmax / AUC(0-inf) / Cmax / half-life / AUC(0-t): female, human, plasma, oral; for Vd / Vd/F / AUC(0-inf) / Cmax / half-life / AUC(0-t): Geometric Mean (GeoCV %); for Vd: read-out: Vss; for Vd/F: read-out: Vz/F
Description: Blood samples were collected at the planned time points from each patient and centrifuged. The plasma portion of each sample was then transferred to a K2EDTA tube, which was then shipped to a bioanalytical lab for concentration measurement using LC-MS/MS. The concentration data were then analyzed using Phoenix® WinNonlin software to obtain PK parameters. The obtained PK parameters were further summarized using analytical software.
Blood samples (approximately 5 mL each) were collected from human patients pre-dose and at various hourly time points post-dose. Plasma concentrations of H3B-6545 were determined using a validated high-performance liquid chromatography/tandem mass spectrometry (LC-MS/MS) method. The lower limit of quantification was 0.100 ng/mL.
The PK Analysis Set included subjects who received H3B-6545 drug product in capsules or tablets and had sufficient evaluable plasma concentration data to derive at least 1 primary PK parameter in each treatment. Plasma concentrations of H3B-6545 (as free base) were tabulated and summarized at each nominal time using descriptive statistics (number of subjects, arithmetic mean with standard deviation [SD], coefficient of variation [CV %], geometric mean, median, minimum, and maximum) as appropriate. Individual and mean (±SD) plasma concentration-time profiles were provided for each treatment.
Pharmacokinetic parameters of H3B-6545 were calculated using noncompartmental methods, using an appropriate model for plasma data and extravascular administration. The PK parameters included, but were not limited to, area under the curve to the time of the last quantifiable concentration (AUC0-t), maximum concentration (Cmax), and time at which the maximum concentration occurred (tmax). If data permitted, the area under the plasma concentration-time curve extrapolated to infinity (AUC0-inf), terminal elimination half-life (t1/2), apparent total body clearance (CL/F), total systemic clearance after oral administration at steady state (CLss/F), apparent volume of distribution during the terminal phase (Vz/F), apparent steady-state volume of distribution (Vss), accumulation ratio for Cmax (RCmax) and accumulation ratio of AUC0-24 (RAUC) were also derived.
Methods were used to analyze whether H3B-6545 inactivates both wild-type and mutant ERα by targeting cysteine 530 and enforcing a unique antagonist conformation. Methods: Women with locally advanced or metastatic HR+BC are treated (tx) with H3B-6545 drug product administered once daily orally by capsule over a 28 day cycle after progression on at least one hormonal therapy and at least one additional therapy/regimen. Dose escalation uses a 3+3 design with the option to backfill previously cleared doses and allows for intrapatient dose escalation. This example explored the safety, pharmacokinetics and pharmacodynamics of H3B-6545 in women with HR+BC to identify a recommended subsequent dose for testing.
• H3B-6545 administered once daily orally over a 28 day cycle. • Dose escalation using a standard 3+3 study design using dose cohorts of 100, 200, 300, 450, and 600 mg QD. • Patients allowed to backfill previously cleared doses. • Intra-patient dose escalation allowed after completion of Cycle 3. Results (as of Apr. 20, 2019) Patient Population: • 46 patients were treated with H3B-6545 at doses of 100 to 600 mg QD. • 42 (91.3%) patients received a prior CDK4/6 inhibitor and 32 (69.6%) prior fulvestrant. • 30 (65.2%) patients received ≥3 prior anti-cancer therapy lines in the advanced/metastatic setting.
The clinical trial of Example 3 was continued and PK evaluations (of this Example 4) were made at a later date on the basis of a larger patient population. The summary of Tables 1 in Analysis of Pharmacokinetic (PK) of Capsules in Fasted Patients and 2 show PK parameters and profiles of human patients receiving capsules of H3B-6545 drug product prepared as in Example 1. […]

[1] = 100 mg, Cycle 1 Day 1, 100 mg QD capsules, fasted patients
[2] = 100 mg, Cycle 1 Day 15, 100 mg QD capsules, fasted patients
[3] = 200 mg, Cycle 1 Day 1, 200 mg QD capsules, fasted patients
[4] = 200 mg, Cycle 1 Day 15, 200 mg QD capsules, fasted patients
[5] = 300 mg, Cycle 1 Day 1, 300 mg QD capsules, fasted patients
[6] = 300 mg, Cycle 1 Day 15, 300 mg QD capsules, fasted patients
[7] = 450 mg, Cycle 1 Day 1, 450 mg QD capsules, fasted patients
[8] = 450 mg, Cycle 1 Day 15, 450 mg QD capsules, fasted patients
[9] = 600 mg, Cycle 1 Day 1, 600 mg QD capsules, fasted patients
[10] = 600 mg, Cycle 1 Day 15, 600 mg QD capsules, fasted patients

Which Vd [1] does the source give for `CN(C)C(=O)/C=C/CNCCOc1ccc(/C(=C(/CC(F)(F)F)c2ccccc2)c2ccc3[nH]nc(F)c3c2)cn1` [H3B-6545, (E)-N,N-dimethyl-4-[2-[5-[(Z)-4,4,4-trifluoro-1-(3-fluoro-1H-indazol-5-yl)-2-phenylbut-1-enyl]pyridin-2-yl]oxyethylamino]but-2-enamide] here?
The Vd was 713 L.

What about the Vd/F [1] of the same molecule?
Its Vd/F is 689 L.

And the Tmax (100 mg, Cycle 1 Day 1, 100 mg QD capsules, fasted patients, Median (Min, Max))?
Its Tmax is 3.05 h.

And the AUC(0-inf) [2]?
The AUC(0-inf) was 2950 ng·h/mL.

What about the Cmax [2] of the same molecule?
The Cmax was 287 ng/mL.

What about the half-life [2] of the same molecule?
Its half-life is 11.5 h.

And the AUC(0-t) (100 mg, Cycle 1 Day 15, 100 mg QD capsules, fasted patients, read-out: AUC0-24)?
The AUC(0-t) was 2560 ng·h/mL.

What about the AUC(0-t) (100 mg, Cycle 1 Day 15, 100 mg QD capsules, fasted patients, read-out: AUC0-t) of the same molecule?
Its AUC(0-t) is 2590 ng·h/mL.

And the Vd [2]?
The Vd was 679 L.

What about the Vd/F [2] of the same molecule?
Its Vd/F is 731 L.

And the Tmax (100 mg, Cycle 1 Day 15, 100 mg QD capsules, fasted patients, Median (Min, Max))?
The Tmax was 2 h.

What about the AUC(0-inf) [3] of the same molecule?
Its AUC(0-inf) is 5270 ng·h/mL.

What about the Cmax [3] of the same molecule?
The Cmax was 473 ng/mL.

And the half-life [3]?
The half-life was 9.73 h.

What about the AUC(0-t) (200 mg, Cycle 1 Day 1, 200 mg QD capsules, fasted patients, read-out: AUC0-24) of the same molecule?
Its AUC(0-t) is 4760 ng·h/mL.

What about the AUC(0-t) (200 mg, Cycle 1 Day 1, 200 mg QD capsules, fasted patients, read-out: AUC0-t) of the same molecule?
The AUC(0-t) was 4810 ng·h/mL.

What about the Vd [3] of the same molecule?
The Vd was 567 L.

And the Vd/F [3]?
The Vd/F was 532 L.

And the Tmax (200 mg, Cycle 1 Day 1, 200 mg QD capsules, fasted patients, Median (Min, Max))?
The Tmax was 5 h.

And the AUC(0-inf) [4]?
The AUC(0-inf) was 7950 ng·h/mL.

And the Cmax [4]?
The Cmax was 605 ng/mL.

And the half-life [4]?
Its half-life is 10.1 h.

What about the AUC(0-t) (200 mg, Cycle 1 Day 15, 200 mg QD capsules, fasted patients, read-out: AUC0-24) of the same molecule?
The AUC(0-t) was 6870 ng·h/mL.

And the AUC(0-t) (200 mg, Cycle 1 Day 15, 200 mg QD capsules, fasted patients, read-out: AUC0-t)?
Its AUC(0-t) is 6910 ng·h/mL.

And the Vd [4]?
Its Vd is 456 L.

And the Vd/F [4]?
The Vd/F was 455 L.

And the Tmax (200 mg, Cycle 1 Day 15, 200 mg QD capsules, fasted patients, Median (Min, Max))?
Its Tmax is 2.17 h.

And the AUC(0-inf) [5]?
Its AUC(0-inf) is 11100 ng·h/mL.

What about the Cmax [5] of the same molecule?
Its Cmax is 898 ng/mL.

What about the half-life [5] of the same molecule?
Its half-life is 9.58 h.

What about the AUC(0-t) (300 mg, Cycle 1 Day 1, 300 mg QD capsules, fasted patients, read-out: AUC0-24) of the same molecule?
Its AUC(0-t) is 9480 ng·h/mL.

And the AUC(0-t) (300 mg, Cycle 1 Day 1, 300 mg QD capsules, fasted patients, read-out: AUC0-t)?
Its AUC(0-t) is 9520 ng·h/mL.

What about the Vd [5] of the same molecule?
Its Vd is 416 L.

What about the Vd/F [5] of the same molecule?
Its Vd/F is 374 L.

And the Tmax (300 mg, Cycle 1 Day 1, 300 mg QD capsules, fasted patients, Median (Min, Max))?
The Tmax was 4 h.

What about the AUC(0-inf) [6] of the same molecule?
Its AUC(0-inf) is 12700 ng·h/mL.

What about the Cmax [6] of the same molecule?
Its Cmax is 1200 ng/mL.

What about the half-life [6] of the same molecule?
Its half-life is 8.52 h.

And the AUC(0-t) (300 mg, Cycle 1 Day 15, 300 mg QD capsules, fasted patients, read-out: AUC0-24)?
Its AUC(0-t) is 12000 ng·h/mL.

And the AUC(0-t) (300 mg, Cycle 1 Day 15, 300 mg QD capsules, fasted patients, read-out: AUC0-t)?
The AUC(0-t) was 12100 ng·h/mL.

And the Vd [6]?
The Vd was 373 L.

And the Vd/F [6]?
The Vd/F was 348 L.

What about the Tmax (300 mg, Cycle 1 Day 15, 300 mg QD capsules, fasted patients, Median (Min, Max)) of the same molecule?
Its Tmax is 4 h.

What about the AUC(0-inf) [7] of the same molecule?
The AUC(0-inf) was 23000 ng·h/mL.

What about the Cmax [7] of the same molecule?
The Cmax was 1500 ng/mL.

What about the half-life [7] of the same molecule?
Its half-life is 11 h.

What about the AUC(0-t) (450 mg, Cycle 1 Day 1, 450 mg QD capsules, fasted patients, read-out: AUC0-24) of the same molecule?
The AUC(0-t) was 16200 ng·h/mL.

And the AUC(0-t) (450 mg, Cycle 1 Day 1, 450 mg QD capsules, fasted patients, read-out: AUC0-t)?
The AUC(0-t) was 16200 ng·h/mL.

What about the Vd [7] of the same molecule?
Its Vd is 343 L.

What about the Vd/F [7] of the same molecule?
Its Vd/F is 311 L.

And the Tmax (450 mg, Cycle 1 Day 1, 450 mg QD capsules, fasted patients, Median (Min, Max))?
Its Tmax is 4 h.

What about the AUC(0-inf) [8] of the same molecule?
The AUC(0-inf) was 17400 ng·h/mL.

And the Cmax [8]?
Its Cmax is 1420 ng/mL.

What about the half-life [8] of the same molecule?
The half-life was 9.81 h.

And the AUC(0-t) (450 mg, Cycle 1 Day 15, 450 mg QD capsules, fasted patients, read-out: AUC0-24)?
The AUC(0-t) was 14000 ng·h/mL.

And the AUC(0-t) (450 mg, Cycle 1 Day 15, 450 mg QD capsules, fasted patients, read-out: AUC0-t)?
The AUC(0-t) was 14100 ng·h/mL.

What about the Vd [8] of the same molecule?
The Vd was 489 L.

And the Vd/F [8]?
Its Vd/F is 466 L.

What about the Tmax (450 mg, Cycle 1 Day 15, 450 mg QD capsules, fasted patients, Median (Min, Max)) of the same molecule?
The Tmax was 4 h.

And the AUC(0-inf) [9]?
Its AUC(0-inf) is 32900 ng·h/mL.

And the Cmax [9]?
The Cmax was 2050 ng/mL.

What about the half-life [9] of the same molecule?
The half-life was 13.1 h.

And the AUC(0-t) (600 mg, Cycle 1 Day 1, 600 mg QD capsules, fasted patients, read-out: AUC0-24)?
Its AUC(0-t) is 22400 ng·h/mL.

And the AUC(0-t) (600 mg, Cycle 1 Day 1, 600 mg QD capsules, fasted patients, read-out: AUC0-t)?
The AUC(0-t) was 22300 ng·h/mL.

And the Vd [9]?
Its Vd is 366 L.

What about the Vd/F [9] of the same molecule?
Its Vd/F is 344 L.

What about the Tmax (600 mg, Cycle 1 Day 1, 600 mg QD capsules, fasted patients, Median (Min, Max)) of the same molecule?
The Tmax was 4 h.

What about the AUC(0-inf) [10] of the same molecule?
The AUC(0-inf) was 39700 ng·h/mL.

And the Cmax [10]?
The Cmax was 1680 ng/mL.

And the half-life [10]?
The half-life was 21.8 h.

What about the AUC(0-t) (600 mg, Cycle 1 Day 15, 600 mg QD capsules, fasted patients, read-out: AUC0-24) of the same molecule?
Its AUC(0-t) is 18400 ng·h/mL.

And the AUC(0-t) (600 mg, Cycle 1 Day 15, 600 mg QD capsules, fasted patients, read-out: AUC0-t)?
The AUC(0-t) was 18700 ng·h/mL.

What about the Vd [10] of the same molecule?
Its Vd is 1100 L.

What about the Vd/F [10] of the same molecule?
The Vd/F was 1030 L.

And the Tmax (600 mg, Cycle 1 Day 15, 600 mg QD capsules, fasted patients, Median (Min, Max))?
The Tmax was 4 h.

What about the Tmax (as of 10 Dec. 2018, 100 to 450 mg/day capsules) of the same molecule?
The Tmax was 2 to 4 h.

What about the Tmax (as of Apr. 20, 2019, 100 to 600 mg QD) of the same molecule?
Its Tmax is 2 to 4 h.

And the “plasma concentration, C1D1 versus C1D15” value (once daily dosing)?
Its value is “similar”.

— patent US12702660B2, “Method for treating cancer with an oral dosage form of an estrogen receptor-alpha inhibitor” (Eisai R&D Management Co., Ltd., priority 2019, dated 2026)
